Test results: the supplement of paper PMC11061612

Legend:
HCC70 (Breast Carcinoma) [1] = assay: Bliss excess, mean over the matrix (fraction); higher = more synergy
Summary of the method: (§1)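 After 24 hours at 37°C and 5% CO2 in 1536-well plates, cells in DMEM/F12 or RPMI plus 10% FBS received two-drug dose matrices for 72 hours. Viability came from CellTiter-Glo 2.0 luminescence and was scaled as inhibition, anchored at 0 by vehicle wells and at 1 by blank wells. Combination Emax is taken as the second-highest inhibition in the matrix, and Bliss excess as the observed combination effect less EA + EB − EA·EB, with EA and EB the single-agent effects.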

[2] = system: HT55 (Colorectal Carcinoma); assay: as above
Summary of the method: as §1

[3] = system: JHU-022 (Oral Cavity Carcinoma); assay: as above
Summary of the method: as §1

[4] = system: NCI-H2228 (Lung Adenocarcinoma); assay: as above
Summary of the method: as §1

[5] = system: OACp4C (Esophageal Adenocarcinoma); assay: as above
Summary of the method: as §1

[6] = system: CA46 (Burkitt's Lymphoma); assay: combination Emax (second highest fraction inhibited in the dose matrix, 72 h); higher = more inhibition; extreme values may be limits of the assay
Summary of the method: as §1

[7] = system: CAL-27 (Oral Cavity Carcinoma); assay: as above
Summary of the method: as §1

[8] = system: CESS (Acute Myeloid Leukemia); assay: as above
Summary of the method: as §1

[9] = system: DU-4475 (Breast Carcinoma); assay: as above
Summary of the method: as §1

EB2 (Burkitt's Lymphoma) = assay: as above
Summary of the method: as §1

[10] = system: G-402 (Other Solid Carcinomas); assay: as above
Summary of the method: as §1

[11] = system: HCC1428 (Breast Carcinoma); assay: as above
Summary of the method: as §1

HCC70 (Breast Carcinoma) [12] = assay: as above
Summary of the method: as §1

IM-9 (Non-Cancerous) = assay: as above
Summary of the method: as §1

[13] = system: JVM-2 (B-Cell Non-Hodgkin's Lymphoma); assay: as above
Summary of the method: as §1

[14] = system: KYSE-140 (Esophageal Squamous Cell Carcinoma); assay: as above
Summary of the method: as §1

[15] = system: MHH-ES-1 (Ewing's Sarcoma); assay: as above
Summary of the method: as §1

[16] = system: NCI-H2087 (Lung Adenocarcinoma); assay: as above
Summary of the method: as §1

RH-41 (Rhabdomyosarcoma) = assay: as above
Summary of the method: as §1

[17] = system: SK-HEP-1 (Hepatocellular Carcinoma); assay: as above
Summary of the method: as §1
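Throughout, for Bliss excess, mean over the matrix: after 72 h of two-drug dosing.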

Compound | Bliss excess (HCC70 (Breast Carcinoma) [1]) | Bliss excess [2] | Bliss excess [3] | Bliss excess [4] | Bliss excess [5] | combination Emax [6] | combination Emax [7] | combination Emax [8] | combination Emax [9] | combination Emax (EB2 (Burkitt's Lymphoma)) | combination Emax [10] | combination Emax [11] | combination Emax (HCC70 (Breast Carcinoma) [12]) | combination Emax (IM-9 (Non-Cancerous)) | combination Emax [13] | combination Emax [14] | combination Emax [15] | combination Emax [16] | combination Emax (RH-41 (Rhabdomyosarcoma)) | combination Emax [17]
NC1(C(=O)N[C@@H](CCO)c2ccc(Cl)cc2)CCN(c2ncnc3[nH]ccc23)CC1 [Capivasertib] + CCN(CCO)CCCOc1ccc2c(Nc3cc(CC(=O)Nc4cccc(F)c4)[nH]n3)ncnc2c1 [AZD2811] (first compound max 10 µM, 7x7, partner max 1 µM) | -0.0506 | -0.0412 | -0.0261 | -0.041 | -0.0332 | 0.362 | 0.646 | 0.654 | 0.679 | 0.653 | 0.658 | 0.465 | 0.745 | 0.933 | 0.755 | 0.829 | 0.665 | 0.256 | 0.943 | 0.533
Cc1c2c(nn1C)CSCc1cc(n(C)n1)CSc1cc(c3ccccc3c1)OCCCc1c(C(=O)O)n(C)c3c-2c(Cl)ccc13 [AZD5991] + Cn1cnc2c(F)c(Nc3ccc(Br)cc3Cl)c(C(=O)NOCCO)cc21 [Selumetinib] (first compound max 1 µM, 7x7, partner max 3 µM) | 0.099 | 0.043 | 0.0466 | 0.0038 | 0.143 | 0.0912 | 0.988 | 0.289 | 1 | 0.212 | 0.955 | 0.977 | 0.994 | 0.848 | 0.646 | 0.439 | 0.672 | 0.588 | 1 | 0.311
COc1cccc(OCCCN)c1-c1cc(Nc2cnc(C#N)cn2)n[nH]1 [Prexasertib] + O=C(c1cc(Cc2n[nH]c(=O)c3ccccc23)ccc1F)N1CCN(C(=O)C2CC2)CC1 [Olaparib] (first compound max 1 µM, 7x7, partner max 10 µM) | -0.0503 | -0.0102 | -0.0537 | -0.0834 | -0.0222 | 0.464 | 0.78 | 0.972 | 0.98 | 0.916 | 0.524 | 0.622 | 0.939 | 1 | 0.946 | 0.826 | 0.954 | 0.784 | 0.95 | 0.338
Cc1c2c(nn1C)CSCc1cc(n(C)n1)CSc1cc(c3ccccc3c1)OCCCc1c(C(=O)O)n(C)c3c-2c(Cl)ccc13 [AZD5991] + Cc1cc2ncnn2cc1Nc1ncc2c(n1)n(C1CCOCC1)c(=O)n2C [AZD7648] (first compound max 1 µM, 7x7, partner max 10 µM) | -0.052 | -0.0152 | -0.028 | -0.0413 | 0.008 | 0.281 | 0.985 | 0.416 | 0.297 | 0.465 | 0.939 | 0.977 | 0.926 | 0.561 | 0.68 | 0.401 | 0.688 | 0.187 | 1 | 0.295
CCN(CCO)CCCOc1ccc2c(Nc3cc(CC(=O)Nc4cccc(F)c4)[nH]n3)ncnc2c1 [AZD2811] + O=C(c1cc(Cc2n[nH]c(=O)c3ccccc23)ccc1F)N1CCN(C(=O)C2CC2)CC1 [Olaparib] (first compound max 1 µM, 7x7, partner max 10 µM) | -0.0249 | 0.0248 | -0.021 | -0.021 | -0.0304 | 0.248 | 0.778 | 0.513 | 0.576 | 0.373 | 0.605 | 0.218 | 0.675 | 0.981 | 0.738 | 0.355 | 0.76 | 0.163 | 0.245 | 0.362
Cn1cnc2c(F)c(Nc3ccc(Br)cc3Cl)c(C(=O)NOCCO)cc21 [Selumetinib] + C=CCn1c(=O)c2cnc(Nc3ccc(N4CCN(C)CC4)cc3)nc2n1-c1cccc(C(C)(C)O)n1 [AZD1775] (first compound max 10 µM, partner max 1 µM) | 0.0361 | -0.0422 | 0.0283 | -0.0613 | -0.0357 | 0.635 | 0.578 | 0.944 | 1 | 0.785 | 0.483 | 0.211 | 0.562 | 1 | 0.906 | 0.683 | 0.726 | 0.559 | 0.974 | 0.315
Cc1c2c(nn1C)CSCc1cc(n(C)n1)CSc1cc(c3ccccc3c1)OCCCc1c(C(=O)O)n(C)c3c-2c(Cl)ccc13 [AZD5991] + C=CCn1c(=O)c2cnc(Nc3ccc(N4CCN(C)CC4)cc3)nc2n1-c1cccc(C(C)(C)O)n1 [AZD1775] (first compound max 1 µM, partner max 1 µM) | 0.0278 | 0.0215 | -0.0072 | 0.0114 | 0.0186 | 0.633 | 0.972 | 0.967 | 0.977 | 0.769 | 0.965 | 0.97 | 0.951 | 0.986 | 0.966 | 0.905 | 0.87 | 0.481 | 1 | 0.35
Cc1c2c(nn1C)CSCc1cc(n(C)n1)CSc1cc(c3ccccc3c1)OCCCc1c(C(=O)O)n(C)c3c-2c(Cl)ccc13 [AZD5991] + CN(C)CCCOc1ccc(-c2ccc3ncc4c(c3c2)n(C2CCOCC2)c(=O)n4C)cn1 [AZD0156] (first compound max 1 µM, 7x7, partner max 1 µM) | -0.0028 | 0.0318 | -0.0079 | -0.0096 | 0.0162 | 0.294 | 0.958 | 0.233 | 0.244 | 0.42 | 0.965 | 0.961 | 0.86 | 0.608 | 0.753 | 0.488 | 0.652 | 0.201 | 1 | 0.281
CN(CCO)CC[C@H](CSc1ccccc1)Nc1ccc(S(=O)(=O)NC(=O)c2ccc(N3CCC([C@@H](O)c4ccccc4-c4ccc(Cl)cc4)CC3)cc2)cc1S(=O)(=O)C(F)(F)F [AZD4320] + CN(C)CCCOc1ccc(-c2ccc3ncc4c(c3c2)n(C2CCOCC2)c(=O)n4C)cn1 [AZD0156] (first compound max 1 µM, 7x7, partner max 1 µM) | -0.0321 | -0.0158 | -0.0584 | -0.0225 | -0.0257 | 0.349 | 0.158 | 0.333 | 0.871 | 0.253 | 0.401 | 0.541 | 0.281 | 0.459 | 0.487 | 0.157 | 0.491 | 0.321 | 0.85 | 0.325
CC1(C)CCC(CN2CCN(c3ccc(C(=O)NS(=O)(=O)c4ccc(NCC5CCOCC5)c([N+](=O)[O-])c4)c(Oc4cnc5[nH]ccc5c4)c3)CC2)=C(c2ccc(Cl)cc2)C1 [Venetoclax] + C1CN(CCC1(C(=O)N[C@@H](CCO)C2=CC=C(C=C2)Cl)N)C3=NC=NC4=C3C=CN4 [Capivasertib] (first compound max 1 µM, 7x7, partner max 3 µM) | -0.0437 | -0.0183 | -0.0729 | -0.0537 | -0.0062 | 0.112 | 0.261 | 0.467 | 0.246 | 0.795 | 0.425 | 0.119 | 0.686 | 0.632 | 0.661 | 0.669 | 0.323 | 0.123 | 0.945 | 0.168
CC(=O)Nc1cccc(-n2c(=O)n(C3CC3)c(=O)c3c(Nc4ccc(I)cc4F)n(C)c(=O)c(C)c32)c1 [Trametinib] + Cc1nc(-c2cn3c(n2)-c2ccc(-c4cnn(C(C)(C)C(N)=O)c4)cc2OCC3)n(C(C)C)n1 [Taselisib] (first compound max 1 µM, 7x7, partner max 10 µM) | 0.149 | -0.0116 | 0.0194 | 0.0724 | 0.0416 | 0.434 | 0.946 | 0.66 | 1 | 0.593 | 0.792 | 0.278 | 1 | 0.941 | 0.746 | 0.817 | 0.563 | 0.639 | 1 | 0.561
CCc1c2c(nc3ccc(O)cc13)-c1cc3c(c(=O)n1C2)COC(=O)[C@]3(O)CC [SN-38] + O=C(c1cc(Cc2n[nH]c(=O)c3ccccc23)ccc1F)N1CCN(C(=O)C2CC2)CC1 [Olaparib] (first compound max 0.3 µM, 7x7, partner max 10 µM) | 0.0458 | 0.0966 | 0.0415 | – | 0.0413 | – | – | 0.989 | 0.942 | 0.932 | 0.829 | – | 0.455 | 1 | 0.934 | – | 0.978 | 0.909 | – | 0.665
